Test results: patent publication US20120213766A1, “Anticancer Compounds from Vernonia Guineensis” (priority 2011, published 2012)

Experiments:
[1] = tested on: Breast cancer cell line MCF-7; test: Cell proliferation assay (WST-1, 72 h); assay type: cell-based; conditions: Homo sapiens, MCF7, Breast MCF-7, average of two runs
Protocol: (§1) Breast cancer cells lines MDA-MD-231 and MCF-7, colon cancer cell line HCT-116, Leukaemia cell line HL-60, lung cancer cell line A549, melanoma cancer cell line A375, ovarian cancer cell line OVCAR3 and prostate cancer cell line PC-3 were treated with Compound A (Kuminol) and Compound B (Vernoginin) to determine the effects of the molecules on the proliferation of each cell line.
(§2) Established protocol was used to assay the anti-proliferation effects of these compounds against selected cancer cell lines. Each cell line is grown in RPMI/10% FBS/1% glutamine. On the day the experiment is initiated, cells are trypsinized and plated into 96 well plates in 50 ul of media. Compound is added approximately 18 hours after plating. Cells are plated at a density so that 72 hours post drug addition, the cells are in log phase (500-2000 cells/well). The compounds are solubilized in DMSO at a concentration of 100 mM, aliquoted and stored at −20^C. On the day of drug addition, the compounds are removed from the freezer and serially diluted in DMSO to concentrations as low as 100 nM. The compounds are then diluted 1:1000 into growth media (this is 2× the final concentration) including a DMSO alone control. 50 ul of media/compound is added to each well. The cells are allowed to proliferate for 72 hours. The experiment is terminated using WST-1 (Roche) and absorbance is read at 450 nm/690 nm IC50s are calculated in GraphPad Prism converting all values to percentage of control cell growth. Each cell line is run in duplicate and the average of the two runs is the calculated IC50 of each compound.

[2] = tested on: Breast cancer cell line MDA-MB-231; test: Cell proliferation assay (WST-1, 72 h); assay type: cell-based; conditions: Homo sapiens, Breast MDA-MB-231, average of two runs
Protocol: as §1, §2

[3] = tested on: Leukaemia cell line HL-60; test: Cell proliferation assay (WST-1, 72 h); assay type: cell-based; conditions: Homo sapiens, Leukaemia HL-60, average of two runs
Protocol: as §1, §2

[4] = tested on: colon cancer cell line HCT-116; test: Cell proliferation assay (WST-1, 72 h); assay type: cell-based; conditions: Homo sapiens, Colon HCT-116, average of two runs
Protocol: as §1, §2

[5] = tested on: lung cancer cell line A549; test: Cell proliferation assay (WST-1, 72 h); assay type: cell-based; conditions: Homo sapiens, average of two runs
Protocol: as §1, §2

[6] = tested on: melanoma cancer cell line A375; test: Cell proliferation assay (WST-1, 72 h); assay type: cell-based; conditions: A-375, Human melanoma A375, average of two runs
Protocol: as §1, §2

[7] = tested on: ovarian cancer cell line OVCAR3; test: Cell proliferation assay (WST-1, 72 h); assay type: cell-based; conditions: Homo sapiens, OVCAR-3, average of two runs
Protocol: as §1, §2

[8] = tested on: prostate cancer, human melanoma, breast cancer and others; test: Anticancer screen, in vitro cell proliferation assay (MTT); assay type: cell-based
Text: The extracts obtained as described above were fractionated by absorbing onto celite and then extracting with increasing polarities of ethyl acetate in hexane. Each fraction obtained was evaporated in-vacuo to remove the solvent and monitored by thin layer chromatography (TLC). […] The dried residue of each fraction was used in the anticancer assay to determine effect on cell proliferation. The active fraction was subjected to dry column chromatography (DCC) using normal phase silica gel activated for visualization with UV 254. This procedure led to the isolation of compounds of Formula I in pure form. The Compound A (Kuminol) and the other fractions obtained were further subjected to anticancer activity screening.
Further purification of second active fraction by use of Waters Sep Pak flash chromatography yielded compounds of the Formula II. Compound B (Vernoginin) inhibited prostate cancer, human melanoma, breast cancer and others in the in vitro cell proliferation assay.
The anticancer screen is based on the highly sensitive 3-(4,5-dimethylthiazol-2-yl)-2, S-diphenyl tetrazolium bromide (MTT) assay. […]
The anticancer activity of the extract obtained as described above was confirmed using the highly proliferative B16 cell line. […] Each of the fractions obtained was evaporated in-vacuo to remove the solvent and monitored by thin layer chromatography (TLC). […]

[9] = tested on: human leukaemia cell line HL-60; test: Apoptosis determination (Annexin V and propidium iodide, flow cytometry); assay type: cell-based; conditions: 1x, 10x and 50x IC50, 0-24 h
Protocol: The apoptotic effects of Kuminol (Compound A) and Vernoginin (Compound B) against the human leukaemia cell line HL-60 was determined. Annexin V and Propidium Iodide assay were carried out to determine whether Kuminol and Vernoginin have effect on cell cycle and induction of apoptosis in cancer cells. Cell death can result from either necrosis or apoptosis (programmed cell death).
The human leukaemia cell line HL60 were plated in RPMI1640 at 4×10^6 (2×10^5 cells/ml) and treated with 1×IC50, 10×IC50 and 50×IC50 Kuminol and Vernoginin. For cell cycle, 2 ml of the treated cells were stained with propidium iodide as per the manufactures instruction, aliquots (2 ml) of cells were removed and fixed at 3, 6, 24, 48 and 72 hours. For apoptosis, 2 ml aliquots of cells were removed at 0, 3, 6 and 24 hours and were stained with Annexin V FITC as per the manufacturer's instructions. The presence of apoptosis and cell cycle changes were detected using a Cytomics 500 Beckman Coulter Flow Cytometer (Coulter, Inc. Hialeah, Fla., USA

[10] = tested on: prostate cancer cell line PC-3; test: Cell proliferation assay (WST-1, 72 h); assay type: cell-based; conditions: Prostate PC-3, average of two runs
Protocol: as §1, §2

B16 tumors = test: In vivo antitumor activity; conditions: B16 tumors in C57 mice; FIG. 5

Row | IC50 [1] | IC50 [2] | IC50 [3] | IC50 [4] | IC50 [5] | IC50 [6] | IC50 [7] | IC50 [10] | SMILES | growth inhibition in anticancer assay (in words) [8] | induction of apoptosis (in words) [9] | suppression of tumors (in words) (B16 tumors)
1 | 1560 ± 960 nM | 367 ± 30 nM | 1120 ± 750 nM | 140 ± 150 nM | 1130 ± 380 nM | 130 ± 150 nM | 480 ± 8 nM | – | C=CC(C)(CC(O)C(O)C(=C)C=O)C(O)C(C(=C)C(C)=O)C(=C)C(=O)CCO (centres unmarked) [Vernoginin, 3,4,7,12,-Tetrahydroxy-6-methyl-2,9-dimethylene-8-(1-methylene-2-oxo-propyl)-10-oxo-6-vinyl-dodecanal] | inhibited | induce apoptosis | –
2 | 670 ± 320 nM | 1010 ± 200 nM | 1550 ± 470 nM | 450 ± 7 nM | 2040 ± 1040 nM | 350 ± 40 nM | 740 ± 310 nM | 1000 ± 260 nM | C=C1COC(O)/C(C(O/C=C(\C)C=O)C(=C)C(=O)O)=C\CCCC(O)C1=O (centres unmarked) [Kuminol, 2-[(2,8-Dihydroxy-10-methylene-9-oxo-oxacycloundec-3-en-3-yl)-(2-methyl-3-oxo-propenyloxy)-methyl]-acrylic acid] | exhibited growth inhibition | induce apoptosis | suppression effects
